Assay results as given in PMC12723664, “A high-quality chromosome-level genome assembly of the oligophagous fruit fly Bactrocera tsuneonis (Diptera: Tephritidae) and insights into its host specificity” (GigaScience, 2025).
“Also recorded” adds a separate entry of the source.

Assays:
[1] = biological target: BtsuOBP83a; assay: Fluorescence competitive binding assay (1-NPN probe), recombinant BtsuOBP83a; set-up: species or system Bactrocera tsuneonis; settings: for Ki: relative dissociation constant calculated from IC50, competition with 1-NPN, ligand 4–32 μmol/L, pH 7.4, read-out: Ki (μM) OBP83a; for binding to BtsuOBP83a (in words): fluorescence competitive binding assay
From the text: (§1) Full-length sequences of BtsuOBP83a and BtsuOBP83b were amplified using specific primers (Supplementary Table S1). Purified PCR products were cloned into the pGEM-T vector (Promega) for sequencing verification. The confirmed target fragments were then subcloned into the pET-30a(+) expression vector (Sangon) using restriction enzymes (Supplementary Table S2) and T4 DNA ligase (Takara). Recombinant plasmids were transformed into Escherichia coli BL21 (DE3) competent cells (Tiangen). Bacterial cultures were grown to an OD600 of 0.6–0.8, after which protein expression was induced by adding isopropyl-β-D-thiogalactopyranoside (IPTG) (Solarbio) to a final concentration of 1 mM at different temperatures. Cells were harvested by centrifugation (5,000 × g, 15 minutes), lysed in phosphate-buffered saline buffer via sonication, and subjected to sodium dodecyl sulfate–polyacrylamide gel electrophoresis (SDS-PAGE) analysis after heat treatment. Large-scale protein expression was performed under optimized induction conditions. Soluble proteins in the supernatant were purified twice using Ni-affinity chromatography (GE Healthcare). His-tags were removed using enterokinase (Novoprotein). All purification steps were conducted at 4°C. The size and purity of OBP proteins were evaluated via SDS-PAGE, and protein concentrations were determined using the Bradford method.
(§2) The ligand-binding affinities of candidate OBPs were evaluated using fluorescence competitive binding assays performed on an F-380 Fluorescence Spectrophotometer (Tianfang), with modifications to the standard procedure. Purified OBP proteins were diluted to a final concentration of 2 μmol/L in 50 mmol/L Tris-HCl buffer (pH 7.4). The fluorescent probe N-phenyl-1-naphthylamine (1-NPN) and all candidate volatile ligands were dissolved in high-performance liquid chromatography–grade methanol at an initial concentration of 1 mmol/L. The binding constant between OBPs and 1-NPN was determined by recording emission spectra from 350 to 470 nm at an excitation wavelength of 337 nm. To establish binding saturation, titrations were conducted by sequentially adding 1-NPN to the protein solution, reaching final concentrations of 2–20 μmol/L in 2-μmol/L increments. Fluorescence intensity was measured after stabilization, and each measurement was performed in triplicate. […] Each experiment was conducted in triplicate. Dissociation constants (Ki) for the volatile ligands were calculated from the corresponding IC50 values using the following equation: […]

[2] = biological target: BtsuOBP83b; assay: Fluorescence competitive binding assay (1-NPN probe), recombinant BtsuOBP83b; set-up: species or system Bactrocera tsuneonis; settings: for Ki: relative dissociation constant calculated from IC50, competition with 1-NPN, ligand 4–32 μmol/L, pH 7.4, read-out: Ki (μM) OBP83b
From the text: as §1, §2

Compound	Ki [1] [µM]	Ki [2] [µM]	Kd ([1]; BtsuOBP83a 2 μmol/L, 50 mmol/L Tris-HCl pH 7.4, 1-NPN 2–20 μmol/L, Scatchard, read-out: dissociation constants (Kd) for 1-NPN) [µM]	Kd ([2]; BtsuOBP83b 2 μmol/L, 50 mmol/L Tris-HCl pH 7.4, 1-NPN 2–20 μmol/L, Scatchard, read-out: dissociation constants (Kd) for 1-NPN) [µM]	binding to BtsuOBP83a (in words) [1]
CCCCCCCCCCCCF [1-Fluorododecane]	> 50	> 50	–	–	–
CC1=CCCC1 [1-Methylcyclopentene]	> 50	> 50	–	–	–
c1ccc(Nc2cccc3ccccc23)cc1 [1-NPN, N-phenyl-1-naphthylamine, reference compound]	–	–	5.48	6.92	–
CCCCCCCCO [1-Octanol]	36.4	39.1	–	–	–
CCc1ccco1 [2-Ethylfuran]	> 50	> 50	–	–	–
CCCC=CC=O [2-Hexenal]	42.7	31.9	–	–	–
COc1cc(C)ccc1C(C)C [2-Isopropyl-5-methylanisole]	> 50	> 50	–	–	–
C#Cc1cccc(N)c1 [3-Ethynylaniline]	> 50	> 50	–	–	–
CC1=C[C@@H]2C(=C(C)CC[C@H]2C(C)C)CC1 [(+)-delta-Cadinene]	> 50	> 50	–	–	–
CC1=CC[C@@H](C(C)(C)O)CC1 [(L)-alpha-terpineol]	> 50	> 50	–	–	–
CCCCOC(=O)CC [Butyl propionate]	> 50	> 50	–	–	–
Cc1ccc(C(C)C)cc1O [Carvacrol]	> 50	> 50	–	–	–
CC(C)c1ccccc1 [Cumene]	> 50	> 50	–	–	–
CCCCC(=O)OCC [Ethyl valerate]	> 50	> 50	–	–	–
CCc1ccccc1 [Ethylbenzene]	> 50	> 50	–	–	–
CC(=O)OCCC(C)C [Isoamyl acetate]	> 50	33.5	–	–	–
C=C1CC/C=C(/C)CC[C@@H]2[C@@H]1CC2(C)C [Isocaryophyllene]	> 50	> 50	–	–	–
CC(C)CCO [Isopentyl alcohol]	> 50	40.2	–	–	–
CC(C)=CCC/C(C)=C\CO [Nerol]	> 50	> 50	–	–	–
CC1=CC(=O)C(C(C)C)CC1 (stereo not drawn) [Piperitone]	17.9	> 50	–	–	selectively binds; also recorded: binds strongly; also recorded: strong binding affinity
C=Cc1ccccc1 [Styrene]	> 50	> 50	–	–	–
CC1=CCCC(C)(C)C12CCC(C)O2 (stereo not drawn) [Theaspirane]	> 50	> 50	–	–	–
CC1=CCC2CC1C2(C)C (stereo not drawn) [alpha-Pinene]	49.2	> 50	–	–	–
C=C1CC/C=C(\C)CC[C@@H]2[C@@H]1CC2(C)C [beta-Caryophyllene]	> 50	> 50	–	–	–
CC/C=C\CCOC(=O)CC [cis-3-Hexenyl propionate]	> 50	> 50	–	–	–
C=C(C)[C@H]1CC=C(C)C(=O)C1 [d-Carvone]	> 50	> 50	–	–	–
CCC/C=C/COC(=O)CC [trans-2-Hexenyl propionate]	> 50	> 50	–	–	–
C=CC(C)(O)CC/C=C(\C)CCC=C(C)C (stereo not drawn) [trans-Nerolidol]	9.36	> 50	–	–	selectively binds; also recorded: binds strongly; also recorded: strong binding affinity

Continued, in another order:

Ki [1] [µM]	Ki [2] [µM]	Compound	Kd ([1]; BtsuOBP83a 2 μmol/L, 50 mmol/L Tris-HCl pH 7.4, 1-NPN 2–20 μmol/L, Scatchard, read-out: dissociation constants (Kd) for 1-NPN) [µM]	Kd ([2]; BtsuOBP83b 2 μmol/L, 50 mmol/L Tris-HCl pH 7.4, 1-NPN 2–20 μmol/L, Scatchard, read-out: dissociation constants (Kd) for 1-NPN) [µM]	binding to BtsuOBP83a (in words) [1]
> 50	31.8	CCCCCCO [1-Hexanol]	–	–	–
> 50	> 50	CCCCOC(=O)C(C)CC (stereo not drawn) [Butyl 2-methylbutyrate]	–	–	–
> 50	> 50	CCCCOC(=O)CCC [Butyl butyrate]	–	–	–
> 50	> 50	CCCCCCCC(=O)OCCCC [Butyl caprylate]	–	–	–
> 50	> 50	CCOC(=O)C(C)CC (stereo not drawn) [Ethyl 2-methylbutyrate]	–	–	–
> 50	> 50	C/C=C/C(=O)OCC [Ethyl crotonate]	–	–	–
> 50	> 50	CCCCCC(=O)OCC [Ethyl hexanoate]	–	–	–
46.3	> 50	CCCCC/C=C/C(=O)OCC [Ethyl trans-2-octenoate]	–	–	–
> 50	33	CCOC(C)=O [Ethylacetate]	–	–	–
40.7	33.7	CCCCCC=O [Hexanal]	–	–	–
> 50	> 50	CCCC(=O)OCCC(C)C [Isoamyl butyrate]	–	–	–
> 50	> 50	CC(=O)OC/C=C(/C)CCC=C(C)C [Neryl acetate]	–	–	–
> 50	> 50	CCCCCCCCOC(C)=O [Octyl acetate]	–	–	–
> 50	> 50	CCCCCC(=O)OCCC [Propyl Hexanoate]	–	–	–
32.1	31.8	CC/C=C\CCO [cis-3-Hexen-1-ol]	–	–	–
> 50	28.5	CCC/C=C/COC(=O)CCC [trans-2-Hexenyl Butyrate]	–	–	–
